From patent publication US7879835B2 (Korea Research Institute of Chemical Technology, priority 2004, dated 2011)

Legend:
[1] = test system: osteoclast (TRAP-positive multinuclear cell) formation; assay: Inhibitory effect on osteoclast formation (TRAP staining); assay type: cell-based, mice; details: 8 days culture with M-CSF and RANKL, compared to control
Description: The inhibitory activities of the alpha-arylmethoxyacrylate derivatives prepared in the above Examples on the proliferation of osteoclasts were examined as follows.
First, a bone marrow sample containing osteoclast pregenitor cells was isolated as follows. After sacrificing 7 to 9 week-old female mice by cervical dislocation, femur and tibia were excised aseptically while removing soft tissues attached thereto, After cutting both ends of the long bones, 1 ml of an enzyme solution containing 0.1% collagenase (Gibco), 0.05% trypsin and 0.5 mM EDTA (Gibco) was injected into the bone marrow cavity at one end using a syringe with a 26-gauge needle, and the bone marrow was then collected. After stirring the recovered bone marrow for 30 min, the precipitated bone marrow cells were collected, and cultured in α-minimum essential medium (α-MEM) supplemented with 10% FBS for 24 hrs. Then, non-adherent cells, which are osteoclast pregenitors, were aliquoted onto a culture plate at a density of 2×10^5 cells per well, and cultured for 8 days in α-MEM supplemented with 20 ng/ml of macrophage-colony stimulating factor (M-CSF, Peprotech, USA), 30 ng/ml RANKL (Peprotech, USA), and 0.3, 1.0 or 3 μM of the compounds of the Examples. Control cells were cultured at the same condition except not adding the compounds of the Examples.
After cell culture for 8 days, the adherent cells were washed with PBS and fixed with citrate-acetate-formaldehyde for 5 min. The fixed cells were incubated at 37° C. for 1 hr in acetate buffer (pH 5.0) containing naphthol AS-BI phosphate, fast Garnet GBC solution and 7 mM tartrate buffer (pH 5.0) to conduct TRAP (tartrate-resistant acid phosphatase) staining.

osteoclasts = assay: Inhibitory effect on resorption activity of osteoclast (resorption pit area on calcium phosphate-coated plate); assay type: cell-based, mice; details: compared to control
Description: After finishing culture, the plate was washed with distilled water, and 50 μl/well of 5% sodium hypochlorite was added to the plate. The plate was let alone for 5 min, washed again with distilled water to remove the adherent cells, and dried at room temperature. Then, the area of formed resorption pits was calculated by means of Image Pro Plus software (Media Cybernetics Ver. 3.0).

[2] = test system: osteoclast pregenitor cells; assay: Cytotoxicity against osteoclast pregenitor (MTT); assay type: cell-based, mice; details: 48 hrs, absorbance at 550 nm
Description: (§1) In order examine the toxicities of the compounds of the Examples against osteoclast pregenitors, pregenitor cells were aliquotted onto a 96-well microplate at a density of 2×10^5 cells per well, treated with 2, 4 and 8 μM of the test compounds, respectively, and cultured for 48 hrs in α-MEM supplemented with 20 ng/ml of M-CSF (Peprotech, USA) using 37° C. incubator (5% CO2). At 3 hrs before the culture was finished, 50 μl of MTT (3-(4,5-dimethylthiazol-2-yl)-2,5-diphenyltetrazolium bromide) solution (50 μg/ml) was added to each well. Upon completion of the cell culture, the supernatant was removed, and the precipitated dye was reacted with 100 μl of isopropanol/0.04 N HCl at room temperature for 30 min to dissolve it. The absorbances of the wells were measured at 550 nm, and the relative absorbance of each well relative to that of the control (set as 100) is shown in Table 6.

MG-63 cells = assay: Cytotoxicity test against osteoblast (MTT); assay type: cell-based, human
Description: as §1
In order to examine the toxicity of the compounds of the Examples against osteoblasts, human osteosarcoma-derived cell line, MG-63 (ATCC No. CRL-1427) cells were treated with 0.1, 0.3, 1.0 and 3.0 μM of the compounds of the Examples, and cultured in DMEM supplemented with 10% FBS (fetal bovine serum).

SMILES | Osteoclast formation inhibitory effects (%) ([1]; 0.3 μM) | Osteoclast formation inhibitory effects (%) ([1]; 1.0 μM) | Osteoclast formation inhibitory effects (%) ([1]; 3.0 μM) | Reduction (%) of the resorption pit area of osteoclasts (osteoclasts; 1 uM) [%] | Reduction (%) of the resorption pit area of osteoclasts (osteoclasts; 3 uM) [%] | relative absorbance relative to that of the control (set as 100), MTT ([2]; 2 uM) | relative absorbance relative to that of the control (set as 100), MTT ([2]; 4 uM) | relative absorbance relative to that of the control (set as 100), MTT ([2]; 8 uM) | Reduction (%) of the resorption pit area of osteoclasts (osteoclasts; 0.3 uM) [%] | relative absorbance relative to that of the control (set as 100), MTT (MG-63 cells; 0.33 uM) | relative absorbance relative to that of the control (set as 100), MTT (MG-63 cells; 1 uM) | relative absorbance relative to that of the control (set as 100), MTT (MG-63 cells; 3 uM)
CO/C=C(/C(=O)OC)c1ccccc1COc1cccc(OCC(C)C)c1 [compound 219] | 99 | 100 | 100 | 88 | 100 | 90 | 100 | 99 |  |  |  | 
CCCCCCOc1cccc(OCc2ccccc2/C(=C\OC)C(=O)OC)c1 [compound 220] | 100 | 100 | 100 | 70 | 73 | 89 | 98 | 96 | 42 |  |  | 
CCC(C)Oc1cccc(OCc2ccccc2/C(=C\OC)C(=O)OC)c1 (centres unmarked) [compound 221] | 39 | 100 | 100 | 100 | 100 | 96 | 96 | 99 | 94 |  |  | 
CO/C=C(/C(=O)OC)c1ccccc1COc1cccc(OC2CCCC2)c1 [compound 222] | 69 | 100 | 100 | 100 | 100 | 97 | 108 | 101 | 100.0 |  |  | 
CO/C=C(/C(=O)OC)c1ccc(Cl)cc1COc1ccc(OCC=C(C)C)cc1 [compound 269] | 97 | 100 | 100 | 100 | 100 |  |  |  | 100 | 81 | 94 | 88
CCCCCCOc1ccc(OCc2cc(Cl)ccc2/C(=C\OC)C(=O)OC)cc1 [compound 271] | 94 | 100 | 100 | 94 | 42 |  |  |  | 30 | 114 | 79 | 64
CCC(C)Oc1ccc(OCc2cc(F)ccc2/C(=C\OC)C(=O)OC)cc1 (centres unmarked) [compound 319] | 82 | 100 | 100 | 100 | 100 |  |  |  | 0 |  |  | 
